Test results reported in patent publication US20250248975.
Read-outs that look alike come from different tables or passages of the source.

Cc1ccc(S(=O)(=O)n2ccc3c4c(c(F)cc32)Sc2cccc(c2)-c2ccn(n2)C(c2cccc(Br)c2)CCCCC(C)(C)c2cn(nn2)C4)cc1 (centres unmarked)
ring closure, isolated yield (triazole bond, 19-membered ring, 3 steps): 22.5%

CC1(c2cccc(I)c2)CCCC(O)CNC(=O)/C=C/c2c(c(F)cc3[nH]ccc23)Oc2ccc(F)c(c2)-c2ncc1[nH]2 (centres unmarked)
ring closure, isolated yield (from CC(CCCC(O)CN)(c1cccc(I)c1)c1cnc(-c2cc(Oc3c(F)cc4[nH]ccc4c3/C=C/C(=O)O)ccc2F)[nH]1, amide bond, 19-membered ring, EDC.HCl/HOBt, THF/DMF 10:1, 102.0 mM, 18.0 h): 40%

CCOC(=O)CCc1cccc(C2CC/C=C/CC(C)(C)c3cnn(c3)Cc3c(c(F)cc4c3ccn4S(=O)(=O)c3ccc(C)cc3)Oc3ccc(F)c(c3)-c3ccn2n3)c1 (centres unmarked)
ring closure, isolated yield (from C=CCCC(c1cccc(CCC(=O)OCC)c1)n1ccc(-c2cc(Oc3c(F)cc4c(ccn4S(=O)(=O)c4ccc(C)cc4)c3Cn3cc(C(C)(C)CC=C)cn3)ccc2F)n1, rcm bond, 20-membered ring, Hoveyda-Grubbs II, toluene, 1.26 mM, 60.0 °C, 12.0 h): 66%

Cn1nc2nc1-c1cc(ccn1)Oc1c(F)cc3[nH]ccc3c1Cn1cc(nn1)C(C)(C)CCCC[C@]2(C)c1cccc(I)c1
ring closure, isolated yield (triazole bond, 19-membered ring, 4 steps): 22.1%

Cn1nc2nc1-c1cc(ccc1F)Oc1c(F)cc3c(ccn3S(=O)(=O)c3ccccc3)c1Cn1cc(cn1)C(C)(C)C/C=C\CC2(C)c1cccc(Br)c1 (centres unmarked)
ring closure, isolated yield (rcm bond, 19-membered ring, Grubbs II, toluene, 100.0 °C): 62%

Cc1ccc(S(=O)(=O)n2ccc3c4c(c(F)cc32)Sc2ccc(F)c(c2)-c2ccn(n2)C(c2cccc(Br)c2)CCOCC(C)(C)c2cn(nn2)C4)cc1 (centres unmarked)
ring closure, isolated yield (from C#CC(C)(C)COCCC(c1cccc(Br)c1)n1ccc(-c2cc(Sc3c(F)cc4c(ccn4S(=O)(=O)c4ccc(C)cc4)c3CN=[N+]=[N-])ccc2F)n1, triazole bond, 19-membered ring, Cu(MeCN)4BF4 (0.1 eq)/TBTA (0.1 eq), DCM, 43.4 mM, 45.0 °C): 61%

COC(=O)/C=C/c1cccc(C2(C)CCCC#Cc3nc(cs3)Cc3c(c(F)cc4c3ccn4S(=O)(=O)c3ccc(C)cc3)Oc3ccc(F)c(c3)-c3ncc2[nH]3)c1 (centres unmarked)
ring closure, isolated yield (from C#CCCCC(C)(c1cccc(/C=C/C(=O)OC)c1)c1cnc(-c2cc(Oc3c(F)cc4c(ccn4S(=O)(=O)c4ccc(C)cc4)c3Cc3csc(I)n3)ccc2F)[nH]1, cc_pd bond, 19-membered ring, PdCl2(PPh3)2/CuI/TEA, DMF, 10.6 mM, 60.0 °C): 15%

Cn1nc2nc1-c1cc(ccc1F)Sc1c(F)cc3c(ccn3S(=O)(=O)c3ccccc3)c1Cn1cc(cn1)C(C)(C)C/C=C\CC2(C)c1cccc(Br)c1 (centres unmarked)
ring closure, isolated yield (rcm bond, 19-membered ring): 79%

C#CC(C)(C)CCCCC(C)(c1cccc(CCC(=O)OC)c1)c1csc(-c2cc(Oc3c(F)cc4[nH]ccc4c3CN=[N+]=[N-])ccc2F)n1 (centres unmarked)
ring closure, isolated yield (the molecule shown is the open-chain precursor, triazole bond, 19-membered ring): 77%

Mixture of 21-(benzenesulfonyl)-6-(3-bromophenyl)-24,30-difluoro-10,10-dimethyl-9,26-dioxa-5,12,13,21,33-pentazahexacyclo[25.3.1.12,5.112,15.017,25.018,22]tritriaconta-1(31),2(33),3,13,15(32),17,19,22,24,27,29-undecaene and 22-(benzenesulfonyl)-7-(3-bromophenyl)-25,31-difluoro-11,11-dimethyl-10,27-dioxa-5,6,13,14,22-pentazahexacyclo[26.3.1.113,16.02,6.018,26.019,23]tritriaconta-1(32),2,4,14,16(33),18,20,23,25,28,30-undecaene
ring closure, isolated yield (other bond, 19-membered ring, CMBP, 1,4-dioxane, 24.7 mM, 145.0 °C): 55%

Cn1cc2nc1-c1cccc(c1)Oc1c(F)cc3[nH]ccc3c1Cn1cc(nn1)C(C)(C)OCCCC2(C)c1cccc(Br)c1 (centres unmarked)
ring closure, isolated yield (from C#CC(C)(C)OCCCC(C)(c1cccc(Br)c1)c1cn(C)c(-c2cccc(Oc3c(F)cc4[nH]ccc4c3CN=[N+]=[N-])c2)n1, triazole bond, 19-membered ring, Cu(MeCN)4BF4/TBTA, DCM, 3.2 mM, 45.0 °C): 60%

CCOC(=O)C(C)Cc1cccc(C2(C)CCC(C)(C)COc3cn(nn3)Cc3c(c(F)cc4c3ccn4S(=O)(=O)c3ccccc3)Oc3ccc(F)c(c3)-c3nc2nn3C)c1 (centres unmarked)
ring closure, isolated yield (from CCOC(=O)C(C)Cc1cccc(C(C)(CCC(C)(C)CO)c2nc(-c3cc(Oc4c(F)cc5c(ccn5S(=O)(=O)c5ccccc5)c4Cn4cc(O)nn4)ccc3F)n(C)n2)c1, ether bond, 19-membered ring, CMBP, toluene, 11.3 mM, 150.0 °C, 1.0 h): 50%

CCOC(=O)C(C)Cc1cccc(C2(C)CCC(C)(C)COc3ccn(n3)Cc3c(c(F)cc4c3ccn4S(=O)(=O)c3ccccc3)Oc3ccc(F)c(c3)-c3nc2nn3C)c1 (single isomer, unassigned; isomer 2)
ring closure, isolated yield (from CCOC(=O)C(C)Cc1cccc(C(C)(CCC(C)(C)COc2cc[nH]n2)c2nc(-c3cc(Oc4c(F)cc5c(ccn5S(=O)(=O)c5ccccc5)c4CO)ccc3F)n(C)n2)c1, other bond, 18-membered ring, CMBP, toluene, 13.6 mM, 150.0 °C, 1.0 h): 21%

Methyl (2R)-3-[3-[21-(benzenesulfonyl)-9,9,24,30-tetrafluoro-3,6-dimethyl-)1-oxa-26-thia-3,4,15,21,32,33-hexazahexacyclo[25.3.1.12,5.112,15.017,25.018,22]tritriaconta-1(31),2(33),4,12(32),13,17,19,22,24,27,29-undecaen-6-yl]phenyl]-2-methylpropanoate
ring closure, isolated yield (other bond, 19-membered ring, CMBP, toluene, 150.0 °C, 3 steps): 11.6%
